Entries after “also recorded” stand apart in the source; their conditions may differ. Counter-ions that a name gives are not always drawn.
Tested on: Subjects with refractory solid tumors
Assay: Phase I clinical trial, open-label, dose-escalating, multiple-dose, weekly intravenous administration (safety, tolerability)
Type: in vivo
Settings: human subjects
Procedure: An open-label, dose-escalating, multiple-dose study to define the safety, tolerability and phamacokinetics of weekly intravenous administration of (4-Methoxy-phenyl)-methyl-(2-methyl-quinazolin-4-yl)-amine hydrochloride was performed. A dosing schedule (each 4 week cycle) was performed for (4-Methoxy-phenyl)-methyl-(2-methyl-quinazolin-4-yl)-amine hydrochloride weekly for 3 weeks with no infusion on the fourth week of each cycle. Subjects with refractory solid tumors were enrolled in cohorts of 3. During Cycle 1, subjects were hospitalized during each infusion of (4-Methoxy-phenyl)-methyl-(2-methyl-quinazolin-4-yl)-amine hydrochloride and remained for observation and safety evaluation for approximately 24 hours following the end of the infusion. All subject had continuous telemetry for 2 hours prior to infusion, for 1-2 hour infusion and for 3 hours after the end of the infusion. Any clinically significant electrocardiographic (ECG) wave form abnormality was recorded and prolongation of the monitoring period extended at the discretion of the principal investigator.
Electrocardiograms were obtained prior to starting the infusion and within 30 minutes of the end of infusion for each infusion of the first cycle. Electrocardiograms on Day 1 were obtained in triplicate 5 minutes apart.
Neurocognitive assessments were made by administration of the Mini-Mental State Examination (MMSE), the Hopkins Verbal Learning and timed Grooved Pegboard tests before administration of the intravenous infusion and approximately 24 hours of the infusion at each weekly administration of the first cycle.
On days 1, 8, and 15 of each cycle, vital signs were obtained prior to the first dose, at 15, 30, and 60 minutes after the initiation of the infusion, and at 0.5, 1, 1.5, 2, and 4 hours after the end of the intravenous infusion. Vital signs at all time points beyond the start of the intravenous infusion included heart rate, blood pressure and respirations. Temperature was measured at the end of the infusion and 4 hours later.
Individual subjects were allowed to continue on repeated weekly ×3 administrations every 28 days with no dose increase provided there was no unacceptable toxicity or disease progression.
Tumor response was evaluated by response evaluation criteria in solid tumors (RECIST) criteria. To prevent sever hypersensitivity reactions due to Cremophor® EL, subjects were premedicated with oral dexamethasone (20 mg) administered approximately 12 and 6 hours before the intravenous infusion with (4-Methoxy-phenyl)-methyl-(2-methyl-quinazolin-4-yl)-amine hydrochloride, diphenhydramine (50 mg) or its equivalent administered intravenously 30-60 minutes before (4-Methoxy-phenyl)-methyl-(2-methyl-quinazolin-4-yl)-amine hydrochloride, and cimetidine (300 mg) or ranitidine (50 mg) administered intravenously 30-60 minutes before (4-Methoxy-phenyl)-methyl-(2-methyl-quinazolin-4-yl)-amine hydrochloride.

[1] = weekly i.v. infusion for 3 of 4 weeks, 0.3-3.3 mg/m^2
[2] = weekly i.v. infusion, 0.3-3.3 mg/m^2

## COc1ccc(N(C)c2nc(C)nc3ccccc23)cc1 [(4-Methoxy-phenyl)-methyl-(2-methyl-quinazolin-4-yl)-amine hydrochloride]
ECG before and within 30 minutes of end of infusion, 0.3-3.3 mg/m^2
  effects on cardiac conduction (PR, QRS or QTc): no significant effects on cardiac conduction
Weekly i.v. administration, various dosages, hydrochloride
  overall safety and tolerability: safe and well tolerated in human subjects at various dosages; also recorded: safe and tolerable
[1]
  dose limiting toxicity: vascular in nature, manifested by an acute coronary syndrome
  intratumor bleeding: incidences of intratumor bleeding
  peripheral cytotoxicity: no evidence of cytotoxity peripherally at the administered doses
[2]
  bradycardia: occasional episodes of bradycardia
  systolic blood pressure: dose-related increase in systolic blood pressure

— patent US20100087458A1, “METHOD OF TREATING MELANOMA” (Myriad Pharmaceuticals, Inc., priority 2007, published 2010)
